Laboratory results from patent publication US8895559B2, “Quinoxalines derivatives and pharmaceutical compositions and kits” (Merck Patent GmbH, priority 2010, dated 2014).

System: PI3K
Experiment: Cellular testing of PI3K inhibitors: P-S473-PKB Luminex assay in PC3 cells
Type: cell-based
Settings: PI3 kinase inhibition, cell
Description: Description of the Method for the Cellular Testing of PI3K Inhibitors
The cellular assay for determination of the P-S473-PKB level is carried out as a Luminex assay in 96-well format in PC3 cells.
PC3 cells are sown out with 20,000 cells per well in 100 μl medium (45% RPMI1460/45% Ham's F12/10% FCS) and incubated on the following day for 30 min with a serial dilution of the test substance (7 concentrations) under serum-free conditions. […] The lysates are incubated overnight at 4° C. with shaking with Luminex beads to which an anti-total PKB antibody is coupled. The detection is carried out on the following day by addition of a P-S473-PKB antibody and a species-specific PE-labelled secondary antibody. The detection of P-S473-PKB is carried out by measurement in a Luminex 100 instrument by determination of 100 events per cavity in a measurement time of 60 sec. […] The values of the preparations treated with test substance are calculated from this as percent of control, and IC50 values are determined by means of RS1.

Row | IC50 [nM] | Compound
1 | 100 to 10000 | COc1cc(Nc2nc3ccccc3nc2NS(=O)(=O)c2cn(C)c(CN(C)C)n2)c(OCCCO)c(OC)c1 [Compound A33]
2 | 1 to 100 | COc1cc(Nc2nc3ccccc3nc2NS(=O)(=O)C2CCS(=O)(=O)C2)c(OCCCO)c(OC)c1 (centres unmarked) [Compound A35]
3 | 1 to 100 | COc1cc(Nc2nc3ccccc3nc2NS(=O)(=O)c2ccc(CN(C)C)cc2)c(OCCCO)c(OC)c1 [Compound A38, 4-dimethylaminomethyl-N-{3-[2-(3-hydroxypropoxy)-3,5-dimethoxyphenylamino]quinoxalin-2-yl}benzenesulfonamide]
4 | 1 to 100 | COc1cc(Nc2nc3ccccc3nc2NS(=O)(=O)C(F)(F)F)c(OCCCO)c(OC)c1 [Compound A39]
5 | 1 to 100 | COc1cc(Nc2nc3ccccc3nc2NS(=O)(=O)C(F)(F)F)c(OC)c(OC)c1 [Compound A40]
6 | 1 to 100 | COc1cc(Nc2nc3ccccc3nc2NS(=O)(=O)c2ccc(C#N)s2)c(OCCS(C)(=O)=O)c(OC)c1 [Compound A41]
7 | 100 to 10000 | COc1cc(Nc2nc3ccccc3nc2NS(=O)(=O)c2cnn(C)c2)c(OCCC(C)O)c(OC)c1 (centres unmarked) [Compound A43]
8 | 1 to 100 | COCCOCCOc1c(Nc2nc3ccccc3nc2NS(=O)(=O)c2ccc(C#N)cc2)cc(OC)cc1OC [Compound A48]
9 | 1 to 100 | COc1cc(Nc2nc3ccccc3nc2NS(=O)(=O)C(F)(F)F)c(OCCOCCO)c(OC)c1 [Compound A49]
10 | 1 to 100 | COc1cc(Nc2nc3ccccc3nc2NS(=O)(=O)c2ccc(F)cc2)c(OCCOCCO)c(OC)c1 [Compound A53]
11 | 100 to 10000 | COc1cc(Nc2nc3ccccc3nc2NS(=O)(=O)c2cn(C)cn2)c(OCCN2CCOCC2)c(OC)c1 [Compound A54]
12 | 100 to 10000 | CCCS(=O)(=O)Nc1nc2ccccc2nc1Nc1cc(OC)cc(OC)c1OCCOCCO [Compound A56]
13 | 100 to 10000 | COc1cc(Nc2nc3ccccc3nc2NS(=O)(=O)c2ccc(CN(C)C)cc2)c(OCCOCCO)c(OC)c1 [Compound A57, 4-Dimethylaminomethyl-N-(3-{2-[2-(2-hydroxy-ethoxy)ethoxy]-3,5-dimethoxyphenylamino}-quinoxalin-2-yl)benzenesulfonamide]
14 | 1 to 100 | COc1cc(Nc2nc3ccccc3nc2NS(=O)(=O)c2ccccc2)c(OCCOCCO)c(OC)c1 [Compound A58]
15 | 1 to 100 | COc1cc(Nc2nc3ccccc3nc2NS(=O)(=O)c2cccs2)c(OCCN(C)CCO)c(OC)c1 [Compound A60]
16 | 100 to 10000 | COc1ccc(S(=O)(=O)Nc2nc3ccccc3nc2Nc2cc(OC)cc(OC)c2OCCOCCO)cc1 [Compound A61]
17 | 100 to 10000 | COc1cc(Nc2nc3ccccc3nc2NS(=O)(=O)c2ccc(NC(C)=O)cc2)c(OCCOCCO)c(OC)c1 [Compound A62]
18 | 100 to 10000 | COc1cc(Nc2nc3ccccc3nc2NS(=O)(=O)c2cccc(C#N)c2)c(OCCOCCO)c(OC)c1 [Compound A63]
19 | 1 to 100 | COc1cc(Nc2nc3ccccc3nc2NS(=O)(=O)c2cccs2)c(OCCOCCO)c(OC)c1 [Compound A64]
20 | 100 to 10000 | COc1cc(Nc2nc3ccccc3nc2NS(=O)(=O)c2cccnc2)c(OCCOCCO)c(OC)c1 [Compound A65]

Row | IC50 [nM] | Compound
21 | 1 to 100 | COc1cc(Nc2nc3ccccc3nc2NS(=O)(=O)c2cccs2)c(OCCO)c(OC)c1 [Compound A66]
22 | 100 to 10000 | COc1cc(Nc2nc3ccccc3nc2NS(=O)(=O)c2cccnc2)c(OCCS(=O)(=O)CCO)c(OC)c1 [Compound A67]
23 | 100 to 10000 | COc1cc(Nc2nc3ccccc3nc2NS(=O)(=O)c2cccnc2)c(OCCN(C)CCO)c(OC)c1 [Compound A68]
24 | 1 to 100 | COc1cc(Nc2nc3ccccc3nc2NS(=O)(=O)c2ccc(C#N)cc2)c(OCC[S+]([O-])CCO)c(OC)c1 (centres unmarked) [Compound A72]
25 | 1 to 100 | COc1cc(Nc2nc3ccccc3nc2NS(=O)(=O)c2ccc(C#N)cc2)c(OCC(O)CO)c(OC)c1 (centres unmarked) [Compound A74]
26 | 100 to 10000 | COc1cc(Nc2nc3ccccc3nc2NS(=O)(=O)c2cn(C)cn2)c(OCCS(=O)(=O)CCO)c(OC)c1 [Compound A77]
27 | 1 to 100 | COc1cc(Nc2nc3ccccc3nc2NS(=O)(=O)c2ccc(C#N)cc2)c(OCCN(C)CCO)c(OC)c1 [Compound A78]
28 | 100 to 10000 | COc1cc(Nc2nc3ccccc3nc2NS(=O)(=O)c2cccnc2)c(OCCCO)c(OC)c1 [Compound A79]
29 | 1 to 100 | COc1cc(Nc2nc3ccccc3nc2NS(=O)(=O)c2cn(C)cn2)c(OCCCO)c(OC)c1 [Compound A86]
30 | 1 to 100 | COc1cc(Nc2nc3ccccc3nc2NS(=O)(=O)c2cn(C)cn2)c(OCCO)c(OC)c1 [Compound A89]
31 | 1 to 100 | COc1cc(Nc2nc3ccccc3nc2NS(=O)(=O)c2ccc(C#N)cc2)c(OC)c(OC)c1 [Compound A91]
32 | 100 to 10000 | COc1cc(Nc2nc3ccccc3nc2NS(=O)(=O)c2cn(C)cn2)c(OC)c(OC)c1 [Compound A92]
33 | 100 to 10000 | COc1cc(Nc2nc3ccccc3nc2NS(=O)(=O)c2ccc(C(=O)NCC(F)F)cc2)c(OCCCO)c(OC)c1 [Compound A93]
34 | 100 to 10000 | COc1cc(Nc2nc3ccccc3nc2NS(=O)(=O)c2cn(C)c(CN(C)C)n2)c(CCCCO)c(OC)c1 [Compound A94]
35 | 100 to 10000 | COc1cc(Nc2nc3ccccc3nc2NS(=O)(=O)c2ccc(C(=O)NCC(F)(F)F)cc2)c(OCCCO)c(OC)c1 [Compound A95]
36 | 100 to 10000 | COc1cc(Nc2nc3ccccc3nc2NS(=O)(=O)CCC#N)c(OCCCO)c(OC)c1 [Compound A96]
37 | 100 to 10000 | COc1cc(Nc2nc3ccccc3nc2NS(=O)(=O)c2cccc(C(=O)N(C)C)c2)c(OCCCO)c(OC)c1 [Compound A97]
38 | 1 to 100 | COc1cc(Nc2nc3ccccc3nc2NS(C)(=O)=O)c(OCCC(C)O)c(OC)c1 (centres unmarked) [Compound A99]
39 | 1 to 100 | COc1cc(Nc2nc3ccccc3nc2NS(=O)(=O)c2cnn(C(F)F)c2)c(OCCC(C)O)c(OC)c1 (centres unmarked) [Compound A103]

The remaining lines, values behind:

Row | Compound | IC50 [nM]
40 | COc1cc(Nc2nc3ccccc3nc2NS(=O)(=O)c2cn(C)cn2)c(OCC(C)CO)c(OC)c1 (centres unmarked) [Compound A32] | 100 to 10000
41 | CCOC(=O)Nc1ccc(S(=O)(=O)Nc2nc3ccccc3nc2Nc2cc(OC)cc(OC)c2OCCCO)cc1 [Compound A34] | 100 to 10000
42 | COc1cc(Nc2nc3ccccc3nc2NS(=O)(=O)CCCS(C)(=O)=O)c(OCCCO)c(OC)c1 [Compound A36] | 1 to 100
43 | COc1cc(Nc2nc3ccccc3nc2NS(=O)(=O)c2cn(C)cn2)c(OCCC(C)O)c(OC)c1 (centres unmarked) [Compound A42] | 1 to 100
44 | COc1cc(Nc2nc3ccccc3nc2NS(=O)(=O)c2cnn(C)c2)c(OCCCO)c(OC)c1 [Compound A44] | 1 to 100
45 | COc1cc(Nc2nc3ccccc3nc2NS(=O)(=O)c2ccc(C#N)cc2)c(OCCC(C)O)c(OC)c1 (centres unmarked) [Compound A45] | 1 to 100
46 | COCCOCCOc1c(Nc2nc3ccccc3nc2NS(=O)(=O)c2cn(C)cn2)cc(OC)cc1OC [Compound A47] | 1 to 100
47 | COc1cc(Nc2nc3ccccc3nc2NS(=O)(=O)c2ccc(NC(C)=O)cc2)c(OCCCO)c(OC)c1 [Compound A50] | 1 to 100
48 | COc1cc(Nc2nc3ccccc3nc2NS(=O)(=O)c2ccc(C#N)s2)c(OCCCO)c(OC)c1 [Compound A51] | 1 to 100
49 | COc1cc(Nc2nc3ccccc3nc2NS(=O)(=O)c2cn(C)cn2)c(OCC[S+](C)[O-])c(OC)c1 (centres unmarked) [Compound A52] | 100 to 10000
50 | COc1cc(Nc2nc3ccccc3nc2NS(=O)(=O)c2cn(C)cn2)c(OCCS(C)(=O)=O)c(OC)c1 [Compound A55] | 1 to 100
51 | COc1cc(Nc2nc3ccccc3nc2NS(=O)(=O)c2ccc(C#N)s2)c(OCCOCCO)c(OC)c1 [Compound A59] | 1 to 100
52 | COc1cc(Nc2nc3ccccc3nc2NS(=O)(=O)c2ccc(C(=O)N(C)C)cc2)c(OCCOCCO)c(OC)c1 [Compound A69] | 100 to 10000
53 | COc1cc(Nc2nc3ccccc3nc2NS(=O)(=O)c2ccc(C#N)cc2)c(OCCN2CCOCC2)c(OC)c1 [Compound A70] | 1 to 100
54 | COc1cc(Nc2nc3ccccc3nc2NS(=O)(=O)c2ccc(F)c(F)c2)c(OCCCO)c(OC)c1 [Compound A71] | 1 to 100
55 | COc1cc(Nc2nc3ccccc3nc2NS(=O)(=O)c2ccc(F)c(F)c2)c(OCCOCCO)c(OC)c1 [Compound A73] | 100 to 10000
56 | COc1cc(Nc2nc3ccccc3nc2NS(=O)(=O)c2cn(C)cn2)c(OCC(O)CO)c(OC)c1 (centres unmarked) [Compound A75] | 100 to 10000
57 | COc1cc(Nc2nc3ccccc3nc2NS(=O)(=O)c2ccc(C#N)cc2)c(OCCS(=O)(=O)CCO)c(OC)c1 [Compound A76] | 1 to 100
58 | COc1cc(Nc2nc3ccccc3nc2NS(=O)(=O)c2ccc(C#N)cc2)c(OCCOCCO)c(OC)c1 [Compound A80] | 1 to 100
59 | COc1cc(Nc2nc3ccccc3nc2NS(=O)(=O)c2cn(C)cn2)c(OCCOCCO)c(OC)c1 [Compound A81] | 100 to 10000
60 | COc1cc(Nc2nc3ccccc3nc2NS(=O)(=O)c2ccc(C#N)cc2)c(OCCCO)c(OC)c1 [Compound A82] | 1 to 100
61 | COc1cc(Nc2nc3ccccc3nc2NS(=O)(=O)c2ccc(C(=O)N(C)C)cc2)c(OC)c(OC)c1 [Compound A90] | 100 to 10000
62 | COc1cc(Nc2nc3ccccc3nc2NS(=O)(=O)c2ccc(C(=O)N3CC(F)(F)C3)cc2)c(OCCCO)c(OC)c1 [Compound A98] | 100 to 10000
63 | COc1cc(Nc2nc3ccccc3nc2NS(=O)(=O)c2ccn(C)n2)c(OCCC(C)O)c(OC)c1 (centres unmarked) [Compound A100] | 1 to 100
64 | COc1cc(Nc2nc3ccccc3nc2NS(=O)(=O)c2cncs2)c(OCCC(C)O)c(OC)c1 (centres unmarked) [Compound A101] | 1 to 100
65 | COc1cc(Nc2nc3ccccc3nc2NS(=O)(=O)c2ccc(C(=O)N3CCC3)cc2)c(OCCCO)c(OC)c1 [Compound A102] | 1 to 100
